Results from ChEMBL document CHEMBL5126497, “2-Difluoromethylpyridine as a bioisosteric replacement of pyridine-N-oxide: the case of quorum sensing inhibitors” (RSC Med Chem, 2021).
pIC50: −log10 of the molar value. Activity calls are given as the source filed them. The rule behind the calls is not given here.

Assays:
[1] = Inhibition of quorum sensing system in Pseudomonas aeruginosa transfected with lasB-gfp
Homo sapiens = species: Homo sapiens; assay: Activation of protease (unknown origin); details: filed as activator
Pseudomonas aeruginosa = assay: Inhibition of biofilm formation in Pseudomonas aeruginosa at 100 uM measured after 48 hrs relative to control; assay type: functional
[2] = Inhibition of quorum sensing system in Chromobacterium violaceum ATCC 31352 assessed as reduction in violacein production at 100 uM relative to control

SMILES	inhibition [1]	Activity (Homo sapiens)	inhibition at 100 µM (Pseudomonas aeruginosa)	pIC50 [1]	inhibition [2]
FC(F)c1cc(Cc2ccc(Cl)cc2)ccn1	Active	–	–	–	–
FC(F)c1ccccn1	Active	–	–	–	–
FC(F)c1cccnc1	Active	–	–	–	–
FC(F)c1cc(-c2ccccc2)ccn1	Active	–	–	–	–
FC(F)c1ccc2ccccc2n1	Active	–	–	–	–
COC(=O)c1ccncc1C(F)F	Active	–	–	–	–
O=[N+]([O-])c1cc[n+]([O-])cc1	–	Active	71%	4.48	37.5%
FC(F)c1cc(Oc2ccccc2)ccn1	Active	–	–	–	–
O=C(c1ccc(Cl)cc1)c1ccnc(C(F)F)c1	–	Active	73%	4.46	57%
N#Cc1cc[n+]([O-])cc1	Active	–	–	–	–
COC(=O)c1ccnc(C(F)F)c1	–	Active	75%	4.57	59%
FC(F)c1nccc2ccccc12	Active	–	–	–	–
N#Cc1ccnc(C(F)F)c1	–	Active	85%	4.72	66%
FC(F)c1ccncc1	Active	–	–	–	–
